# Measurements reported in patent US20240376121A1, “COMPOUNDS AND USES THEREOF” (Foghorn Therapeutics Inc., priority 2021, published 2024).
# Tests used:
# [1] = target: T1, HiBit-BRM fusion protein (Homo sapiens, UniProt P51531); assay: HiBiT-BRM cell-based degradation assay (Nano-Glo HiBiT Lytic Detection); details: stable HeLa cell line expressing HiBiT-BRM, 24 h incubation; for BRM HiBit Degradation Maximum (%): top dose 30 μM; for DC50: read-out: BRM HiBit Degradation IC50
# T1 construct: expressed in transfected cells
# Protocol: (§1) Procedure: A stable HeLa cell line expressing HiBiT-BRM was generated. On day 0, 5000 cells were seeded in 40 μL of media into each well of 384-well cell culture plates. On day 1, cells were treated with 120 nL DMSO or 120 nL of 3-fold serially DMSO-diluted compounds (10 points in duplicate with 30 μM as final top dose). Subsequently plates were incubated for 24 h in a standard tissue culture incubator and equilibrated at room temperature for 15 minutes. Nano-Glo HiBiT Lytic Detection System (Promega N3050) reagent was freshly prepared and 20 ul was added to each well. Upon addition of this LgBit-containing reagent, the HiBiT and LgBiT proteins associate to form the luminescent NanoBiT luciferase. The plates were shaken for 10 minutes at room temperature and the bioluminescence read using an EnVision plate reader (PerkinElmer).
# (§2) The degradation % was calculated using the following formula: % degradation=100%−100%×(LumSample−LumLC)/(LumHC−LumLC). DMSO treated cells are employed as High Control (HC) and 2 μM of a known BRM/BRG1 degrader standard treated cells are employed as Low Control (LC).
# [2] = target: T2, HiBit-BRG1 fusion protein (Homo sapiens, UniProt P51532); assay: HiBiT-BRG1 cell-based degradation assay (Nano-Glo HiBiT Lytic Detection); details: stable HeLa cell line expressing HiBit-BRG1 and LgBit, 24 h incubation; for Dmax: top dose 30 μM, read-out: BRG1 HiBit Degradation Maximum (%); for DC50: read-out: BRMG1 HiBit Degradation IC50
# T2 construct: expressed in transfected cells
# Protocol: as §1
# For measurement of BRG1 degradation, a stable HeLa cell line expressing HiBit-BRG1 and LgBit was generated. The same protocol as above was then followed.
# as §2
# T1 sequence (P51531 whole entry, the tested form may be a part): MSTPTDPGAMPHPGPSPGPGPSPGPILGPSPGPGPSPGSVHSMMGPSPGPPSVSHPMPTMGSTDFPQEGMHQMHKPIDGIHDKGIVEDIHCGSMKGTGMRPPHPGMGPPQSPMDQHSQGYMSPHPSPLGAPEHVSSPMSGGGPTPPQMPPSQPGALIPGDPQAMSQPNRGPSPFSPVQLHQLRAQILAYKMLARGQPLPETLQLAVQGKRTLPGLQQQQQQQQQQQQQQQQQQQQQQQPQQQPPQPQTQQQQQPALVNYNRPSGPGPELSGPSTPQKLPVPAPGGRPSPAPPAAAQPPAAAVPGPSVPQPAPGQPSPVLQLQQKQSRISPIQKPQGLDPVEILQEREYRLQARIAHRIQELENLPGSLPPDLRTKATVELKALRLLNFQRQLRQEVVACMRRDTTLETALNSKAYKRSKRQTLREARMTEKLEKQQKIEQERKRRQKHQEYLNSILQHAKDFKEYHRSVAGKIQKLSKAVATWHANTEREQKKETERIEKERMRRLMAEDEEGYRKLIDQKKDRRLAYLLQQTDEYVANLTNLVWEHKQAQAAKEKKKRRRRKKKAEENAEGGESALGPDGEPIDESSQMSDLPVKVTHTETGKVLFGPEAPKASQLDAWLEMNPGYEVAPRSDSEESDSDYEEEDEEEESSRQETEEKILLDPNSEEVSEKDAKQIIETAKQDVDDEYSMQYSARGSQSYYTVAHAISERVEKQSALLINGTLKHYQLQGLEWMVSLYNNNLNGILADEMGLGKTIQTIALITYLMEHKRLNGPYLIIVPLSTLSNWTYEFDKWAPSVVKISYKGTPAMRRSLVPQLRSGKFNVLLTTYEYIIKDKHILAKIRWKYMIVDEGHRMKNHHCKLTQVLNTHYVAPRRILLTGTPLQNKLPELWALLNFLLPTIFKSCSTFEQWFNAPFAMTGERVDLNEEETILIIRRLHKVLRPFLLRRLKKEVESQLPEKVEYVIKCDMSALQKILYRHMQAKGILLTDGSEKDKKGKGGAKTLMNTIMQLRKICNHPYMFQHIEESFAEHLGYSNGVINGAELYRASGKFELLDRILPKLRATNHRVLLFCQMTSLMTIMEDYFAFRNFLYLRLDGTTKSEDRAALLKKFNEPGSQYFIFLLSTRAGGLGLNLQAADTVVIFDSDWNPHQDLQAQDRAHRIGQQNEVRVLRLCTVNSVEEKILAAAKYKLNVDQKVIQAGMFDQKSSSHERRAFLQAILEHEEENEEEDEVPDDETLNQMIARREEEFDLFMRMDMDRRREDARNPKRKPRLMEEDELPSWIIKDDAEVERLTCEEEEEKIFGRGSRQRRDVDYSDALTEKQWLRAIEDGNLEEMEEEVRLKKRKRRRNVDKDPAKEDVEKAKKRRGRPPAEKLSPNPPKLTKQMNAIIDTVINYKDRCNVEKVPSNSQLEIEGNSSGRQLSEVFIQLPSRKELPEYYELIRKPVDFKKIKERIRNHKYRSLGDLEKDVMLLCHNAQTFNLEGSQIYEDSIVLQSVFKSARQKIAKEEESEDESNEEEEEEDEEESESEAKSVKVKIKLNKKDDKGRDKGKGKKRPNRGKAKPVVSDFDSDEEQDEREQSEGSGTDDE
# T2 sequence (P51532 whole entry, the tested form may be a part): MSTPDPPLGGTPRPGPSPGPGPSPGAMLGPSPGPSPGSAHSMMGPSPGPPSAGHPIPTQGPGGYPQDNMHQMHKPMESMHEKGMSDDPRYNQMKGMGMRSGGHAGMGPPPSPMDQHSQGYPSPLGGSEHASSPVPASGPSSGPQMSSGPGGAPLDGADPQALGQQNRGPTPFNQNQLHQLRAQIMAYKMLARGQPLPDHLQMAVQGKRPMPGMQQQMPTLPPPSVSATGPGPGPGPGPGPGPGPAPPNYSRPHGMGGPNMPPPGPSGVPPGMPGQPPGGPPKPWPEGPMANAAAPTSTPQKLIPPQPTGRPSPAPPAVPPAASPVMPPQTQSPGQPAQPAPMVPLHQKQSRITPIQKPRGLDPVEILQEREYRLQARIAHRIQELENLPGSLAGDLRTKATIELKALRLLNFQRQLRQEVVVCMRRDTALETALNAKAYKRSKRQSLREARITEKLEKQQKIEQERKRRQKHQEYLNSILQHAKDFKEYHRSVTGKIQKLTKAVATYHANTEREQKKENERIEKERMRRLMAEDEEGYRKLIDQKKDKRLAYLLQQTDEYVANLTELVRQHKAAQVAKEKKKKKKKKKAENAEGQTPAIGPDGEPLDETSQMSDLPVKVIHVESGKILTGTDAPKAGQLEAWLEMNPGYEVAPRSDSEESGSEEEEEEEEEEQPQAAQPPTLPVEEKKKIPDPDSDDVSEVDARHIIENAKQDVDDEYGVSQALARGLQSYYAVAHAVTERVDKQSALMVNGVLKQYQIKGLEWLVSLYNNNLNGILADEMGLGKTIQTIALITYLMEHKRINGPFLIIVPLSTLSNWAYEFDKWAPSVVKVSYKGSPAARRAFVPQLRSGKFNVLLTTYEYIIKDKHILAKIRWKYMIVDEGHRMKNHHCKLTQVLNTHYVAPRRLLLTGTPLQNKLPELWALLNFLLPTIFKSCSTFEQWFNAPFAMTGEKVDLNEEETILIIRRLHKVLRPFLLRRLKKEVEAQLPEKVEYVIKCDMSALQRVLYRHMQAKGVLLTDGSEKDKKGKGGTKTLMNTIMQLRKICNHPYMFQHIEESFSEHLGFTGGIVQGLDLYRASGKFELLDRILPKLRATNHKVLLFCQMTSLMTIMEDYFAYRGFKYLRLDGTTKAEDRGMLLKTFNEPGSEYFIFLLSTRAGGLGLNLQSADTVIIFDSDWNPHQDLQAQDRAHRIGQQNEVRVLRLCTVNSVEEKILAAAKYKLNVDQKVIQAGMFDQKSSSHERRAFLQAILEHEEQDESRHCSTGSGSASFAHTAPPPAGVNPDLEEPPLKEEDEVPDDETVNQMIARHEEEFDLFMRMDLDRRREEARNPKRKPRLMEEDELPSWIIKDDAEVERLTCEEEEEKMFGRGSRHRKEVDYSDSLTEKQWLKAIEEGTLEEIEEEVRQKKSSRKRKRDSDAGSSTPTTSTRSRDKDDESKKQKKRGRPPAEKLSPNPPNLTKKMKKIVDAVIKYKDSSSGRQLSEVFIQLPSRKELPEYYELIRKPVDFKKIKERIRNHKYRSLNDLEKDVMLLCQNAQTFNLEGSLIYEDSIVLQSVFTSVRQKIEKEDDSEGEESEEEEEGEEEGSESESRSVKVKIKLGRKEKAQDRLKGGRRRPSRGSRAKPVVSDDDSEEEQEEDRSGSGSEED
Structure (SMILES),BRM HiBit Degradation Maximum (%) [1],DC50 [1] [µM],Dmax [2] [%],DC50 [2] [µM]
Cc1ncsc1-c1ccc([C@@H](C)NC(=O)[C@H]2C[C@H](O)CN2C(=O)[C@H](c2cc(OCCN3CC(Cc4cc5cc(-c6ccccc6O)nnc5s4)C3)no2)C(C)C)cc1 [Compound 23],B (“B” indicates maximum degradation ≥ 50%),≥ 0.1,< 50,≥ 1
Cc1ncsc1-c1ccc(CNC(=O)[C@@H]2C[C@@H](O)CN2C(=O)[C@@H](NC(=O)CCN2CCC(c3cc4cc(-c5ccccc5O)nnc4s3)CC2)C(C)(C)C)cc1 [Compound 24],C (“C” indicates maximum degradation < 50%),≥ 1,< 50,≥ 1
Cc1ncsc1-c1ccc(CNC(=O)[C@@H]2C[C@@H](O)CN2C(=O)[C@@H](NC(=O)CCC(=O)N2CC(c3cc4cc(-c5ccccc5O)nnc4s3)C2)C(C)(C)C)cc1 [Compound 25],C (“C” indicates maximum degradation < 50%),≥ 1,< 50,≥ 1
Cc1ncsc1-c1ccc(CNC(=O)[C@@H]2C[C@@H](O)CN2C(=O)[C@@H](NC(=O)CCN2CC(c3cc4cc(-c5ccccc5O)nnc4s3)C2)C(C)(C)C)cc1 [Compound 26],C (“C” indicates maximum degradation < 50%),≥ 1,< 50,≥ 1
Cc1ncsc1-c1ccc(CNC(=O)[C@@H]2C[C@@H](O)CN2C(=O)[C@@H](NC(=O)CCC(=O)N2CCC(c3cc4cc(-c5ccccc5O)nnc4s3)CC2)C(C)(C)C)cc1 [Compound 27],B (“B” indicates maximum degradation ≥ 50%),≥ 1,< 50,≥ 1
Cc1ncsc1-c1ccc(CNC(=O)[C@@H]2C[C@@H](O)CN2C(=O)[C@@H](NC(=O)CCCC(=O)N2CCC(c3cc4cc(-c5ccccc5O)nnc4s3)CC2)C(C)(C)C)cc1 [Compound 28],B (“B” indicates maximum degradation ≥ 50%),≥ 1,< 50,≥ 1
Cc1ncsc1-c1ccc(CNC(=O)[C@@H]2C[C@@H](O)CN2C(=O)[C@@H](NC(=O)CCCCC(=O)N2CCC(c3cc4cc(-c5ccccc5O)nnc4s3)CC2)C(C)(C)C)cc1 [Compound 29],C (“C” indicates maximum degradation < 50%),≥ 1,< 50,≥ 1
Cc1ncsc1-c1ccc(CNC(=O)[C@@H]2C[C@@H](O)CN2C(=O)[C@@H](NC(=O)CCCCC(=O)N2CC(c3cc4cc(-c5ccccc5O)nnc4s3)C2)C(C)(C)C)cc1 [Compound 30],C (“C” indicates maximum degradation < 50%),≥ 1,< 50,≥ 1
Cc1ncsc1-c1ccc(CNC(=O)[C@@H]2C[C@@H](O)CN2C(=O)[C@@H](NC(=O)CCCC(=O)N2CC(c3cc4cc(-c5ccccc5O)nnc4s3)C2)C(C)(C)C)cc1 [Compound 31],C (“C” indicates maximum degradation < 50%),≥ 0.1,< 50,≥ 1
Cc1ncsc1-c1ccc([C@H](C)NC(=O)[C@@H]2C[C@@H](O)CN2C(=O)[C@@H](c2cc(OCCN3C[C@@H]4[C@H](C3)[C@H]4c3cc4cc(-c5ccccc5O)nnc4s3)no2)C(C)C)cc1 [Compound 32],A (“A” indicates maximum degradation ≥ 75%),≥ 0.01,< 50,≥ 1
Cc1ncsc1-c1ccc([C@H](C)NC(=O)[C@@H]2C[C@@H](O)CN2C(=O)[C@H](c2cc(N3CCC(CN4CC(c5cc6cc(-c7ccccc7O)nnc6s5)C4)CC3)no2)C(C)C)cc1 [Compound 33],C (“C” indicates maximum degradation < 50%),≥ 1,< 50,≥ 1
"Cc1ncsc1-c1ccc([C@H](C)NC(=O)[C@@H]2C[C@@H](O)CN2C(=O)[C@@H](c2cc(O[C@@H]3CC[C@@H]3N3CCC(c4sc5nnc(-c6ccccc6O)cc5c4C)CC3)no2)C(C)C)cc1 [Compound 35, (2S,4R)-4-hydroxy-1-[(2R)-2-{3-[(1R,2S)-2-{4-[3-(2-hydroxyphenyl)-5-methylthieno[2,3-c]pyridazin-6-yl]piperidin-1-yl}cyclobutoxy]-1,2-oxazol-5-yl}-3-methylbutanoyl]-N-[(1S)-1-[4-(4-methyl-1,3-thiazol-5-yl)phenyl]ethyl]pyrrolidine-2-carboxamide]",A (“A” indicates maximum degradation ≥ 75%),≥ 0.01,< 50,≥ 1
"Cc1ncsc1-c1ccc([C@H](C)NC(=O)[C@@H]2C[C@@H](O)CN2C(=O)[C@@H](c2cc(O[C@H]3CC[C@@H]3N3CCC(c4sc5nnc(-c6ccccc6O)cc5c4C)CC3)no2)C(C)C)cc1 [Compound 36, (2S,4R)-4-hydroxy-1-[(2R)-2-{3-[(1S,2S)-2-{4-[3-(2-hydroxyphenyl)-5-methylthieno[2,3-c]pyridazin-6-yl]piperidin-1-yl}cyclobutoxy]-1,2-oxazol-5-yl}-3-methylbutanoyl]-N-[(1S)-1-[4-(4-methyl-1,3-thiazol-5-yl)phenyl]ethyl]pyrrolidine-2-carboxamide]",B (“B” indicates maximum degradation ≥ 50%),≥ 0.01,< 50,≥ 1
"Cc1ncsc1-c1ccc([C@H](C)NC(=O)[C@@H]2C[C@@H](O)CN2C(=O)[C@@H](c2cc([C@H]3CC[C@@H](N4CCC(c5sc6nnc(-c7ccccc7O)cc6c5C)CC4)CC3)no2)C(C)C)cc1 [Compound 37, (2S,4R)-4-hydroxy-1-((R)-2-(3-((1s,4S)-4-(4-(3-(2-hydroxyphenyl)-5-methylthieno[2,3-c]pyridazin-6-yl)piperidin-1-yl)cyclohexyl)isoxazol-5-yl)-3-methylbutanoyl)-N-((S)-1-(4-(4-methylthiazol-5-yl)phenyl)ethyl)pyrrolidine-2-carboxamide]",A (“A” indicates maximum degradation ≥ 75%),< 0.01,< 50,≥ 1
"Cc1ncsc1-c1ccc([C@H](C)NC(=O)[C@@H]2C[C@@H](O)CN2C(=O)[C@@H](c2cc([C@H]3CC[C@H](N4CCC(c5sc6nnc(-c7ccccc7O)cc6c5C)CC4)CC3)no2)C(C)C)cc1 [Compound 38, (2S,4R)-4-hydroxy-1-((R)-2-(3-((1r,4R)-4-(4-(3-(2-hydroxyphenyl)-5-methylthieno[2,3-c]pyridazin-6-yl)piperidin-1-yl)cyclohexyl)isoxazol-5-yl)-3-methylbutanoyl)-N-((S)-1-(4-(4-methylthiazol-5-yl)phenyl)ethyl)pyrrolidine-2-carboxamide]",A (“A” indicates maximum degradation ≥ 75%),≥ 0.1,< 50,≥ 1
"Cc1ncsc1-c1ccc([C@H](C)NC(=O)[C@@H]2C[C@@H](O)CN2C(=O)[C@@H](c2cc(OCCN[C@H]3CCc4sc5nnc(-c6ccccc6O)cc5c4C3)no2)C(C)C)cc1 [Compound 39, (2S,4R)-4-hydroxy-1-((R)-2-(3-(2-(((S)-3-(2-hydroxyphenyl)-5,6,7,8-tetrahydrobenzo[4,5]thieno[2,3-c]pyridazin-6-yl)amino)ethoxy)isoxazol-5-yl)-3-methylbutanoyl)-N—((S)-1-(4-(4-methylthiazol-5-yl)phenyl)ethyl)pyrrolidine-2-carboxamide]",C (“C” indicates maximum degradation < 50%),≥ 1,< 50,≥ 1
"Cc1ncsc1-c1ccc([C@H](C)NC(=O)[C@@H]2C[C@@H](O)CN2C(=O)[C@@H](c2cc(OCCN[C@@H]3CCc4sc5nnc(-c6ccccc6O)cc5c4C3)no2)C(C)C)cc1 [Compound 40, (2S,4R)-4-hydroxy-1-((R)-2-(3-(2-(((R)-3-(2-hydroxyphenyl)-5,6,7,8-tetrahydrobenzo[4,5]thieno[2,3-c]pyridazin-6-yl)amino)ethoxy)isoxazol-5-yl)-3-methylbutanoyl)-N—((S)-1-(4-(4-methylthiazol-5-yl)phenyl)ethyl)pyrrolidine-2-carboxamide]",C (“C” indicates maximum degradation < 50%),≥ 1,< 50,≥ 1
"Cc1ncsc1-c1ccc([C@H](C)NC(=O)[C@@H]2C[C@@H](O)CN2C(=O)[C@@H](c2cc(N3C[C@H]4C[C@@H]3CN4C(=O)[C@H]3CCc4sc5nnc(-c6ccccc6O)cc5c4C3)no2)C(C)C)cc1 [Compound 41, (2S,4R)-4-hydroxy-1-((R)-2-(3-((1R,4R)-5-((S)-3-(2-hydroxyphenyl)-5,6,7,8-tetrahydrobenzo[4,5]thieno[2,3-c]pyridazine-6-carbonyl)-2,5-diazabicyclo[2.2.1]heptan-2-yl)isoxazol-5-yl)-3-methylbutanoyl)-N—((S)-1-(4-(4-methylthiazol-5-yl)phenyl)ethyl)pyrrolidine-2-carboxamide]",A (“A” indicates maximum degradation ≥ 75%),≥ 0.01,≥ 50,≥ 0.1
